Laboratory results: publication PMC5908474 (European journal of medicinal chemistry, 2018)
Like-named read-outs stand apart in the source and are kept apart here. Values belong to the compound of their own block, whether it stands above or below them.

Columns and labels:
[1] = molecular target: recombinant human S1PR2 (Homo sapiens, UniProt O95136); assay: [32P]S1P competitive binding assay, S1PR2
[2] = molecular target: recombinant human S1PR3 (Homo sapiens, UniProt Q99500); assay: [32P]S1P competitive binding assay, S1PR3
[3] = molecular target: recombinant human S1PR1 (Homo sapiens, UniProt P21453); assay: [32P]S1P competitive binding assay, S1PR1; settings: for IC50: mean ± SD, CHO cell membrane, recombinant human S1PR1, 0.1 nM [32P]S1P; for fold increased S1PR1 IC50 value compared to compound 4: vs compound 4 (2.6 nM)
[4] = molecular target: T1, recombinant human S1PR4 (Homo sapiens, UniProt O95977); assay: [32P]S1P competitive binding assay, S1PR4
T1 sequence (O95977 1-384): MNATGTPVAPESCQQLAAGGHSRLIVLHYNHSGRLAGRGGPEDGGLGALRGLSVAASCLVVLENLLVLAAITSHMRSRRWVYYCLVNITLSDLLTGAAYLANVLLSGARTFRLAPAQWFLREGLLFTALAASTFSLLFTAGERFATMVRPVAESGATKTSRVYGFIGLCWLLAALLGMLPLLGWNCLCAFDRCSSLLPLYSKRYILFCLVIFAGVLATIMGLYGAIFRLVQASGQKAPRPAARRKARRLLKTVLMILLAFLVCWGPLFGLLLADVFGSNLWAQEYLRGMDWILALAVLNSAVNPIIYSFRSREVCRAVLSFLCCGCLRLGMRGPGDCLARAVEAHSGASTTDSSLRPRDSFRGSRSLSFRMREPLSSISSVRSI

[5] = molecular target: recombinant human S1PR5 (Homo sapiens, UniProt Q9H228); assay: [32P]S1P competitive binding assay, S1PR5
Sequence of recombinant human S1PR5 (Q9H228 whole entry): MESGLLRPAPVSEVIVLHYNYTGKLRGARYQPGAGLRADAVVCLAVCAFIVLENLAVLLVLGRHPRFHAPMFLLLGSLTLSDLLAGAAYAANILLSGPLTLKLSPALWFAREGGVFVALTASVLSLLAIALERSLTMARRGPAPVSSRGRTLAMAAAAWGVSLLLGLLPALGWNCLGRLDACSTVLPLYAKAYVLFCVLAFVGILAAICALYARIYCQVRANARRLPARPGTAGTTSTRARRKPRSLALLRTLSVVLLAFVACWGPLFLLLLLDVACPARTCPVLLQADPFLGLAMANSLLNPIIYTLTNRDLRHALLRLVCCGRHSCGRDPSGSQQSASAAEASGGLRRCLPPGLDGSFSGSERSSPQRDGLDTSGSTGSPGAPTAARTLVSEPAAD

Sequence of recombinant human S1PR1 (P21453 whole entry): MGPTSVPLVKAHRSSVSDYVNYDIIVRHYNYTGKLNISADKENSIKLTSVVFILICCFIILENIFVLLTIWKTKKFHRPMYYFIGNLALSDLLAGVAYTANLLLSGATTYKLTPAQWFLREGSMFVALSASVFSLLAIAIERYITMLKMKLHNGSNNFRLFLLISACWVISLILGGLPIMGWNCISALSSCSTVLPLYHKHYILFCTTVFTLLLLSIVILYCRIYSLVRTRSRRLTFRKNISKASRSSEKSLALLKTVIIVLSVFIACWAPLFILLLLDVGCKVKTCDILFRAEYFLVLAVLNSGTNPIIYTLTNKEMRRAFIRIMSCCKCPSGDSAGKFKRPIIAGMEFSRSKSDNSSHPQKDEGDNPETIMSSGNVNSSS
Sequence of recombinant human S1PR3 (Q99500 whole entry): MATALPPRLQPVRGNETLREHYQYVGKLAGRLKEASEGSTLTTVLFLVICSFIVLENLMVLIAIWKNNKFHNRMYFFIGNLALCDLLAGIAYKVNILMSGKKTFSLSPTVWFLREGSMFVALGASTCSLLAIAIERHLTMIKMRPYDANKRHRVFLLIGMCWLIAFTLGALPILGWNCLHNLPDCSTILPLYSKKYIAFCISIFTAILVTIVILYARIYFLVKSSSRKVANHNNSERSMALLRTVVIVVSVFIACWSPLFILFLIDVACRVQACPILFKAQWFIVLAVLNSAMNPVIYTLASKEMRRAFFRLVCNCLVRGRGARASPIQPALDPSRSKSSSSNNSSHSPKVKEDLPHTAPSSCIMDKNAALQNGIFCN
Sequence of recombinant human S1PR2 (O95136 whole entry): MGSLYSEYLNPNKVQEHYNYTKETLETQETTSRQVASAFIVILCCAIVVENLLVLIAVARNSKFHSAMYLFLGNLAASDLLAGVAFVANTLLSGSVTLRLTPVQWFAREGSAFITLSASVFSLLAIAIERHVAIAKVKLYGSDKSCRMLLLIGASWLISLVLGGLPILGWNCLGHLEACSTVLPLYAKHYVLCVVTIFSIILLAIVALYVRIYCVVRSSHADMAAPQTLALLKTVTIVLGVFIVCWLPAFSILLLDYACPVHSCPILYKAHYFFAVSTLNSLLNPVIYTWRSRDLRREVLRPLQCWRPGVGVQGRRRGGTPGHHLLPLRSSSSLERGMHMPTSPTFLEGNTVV

IC50 [1]: > 1000 nM
IC50 [2]: > 1000 nM
SMILES: NS(=O)(=O)c1ccc(-c2noc(-c3ccc(OCCF)c(C(F)(F)F)c3)n2)cc1 [9a, 4-(5-(4-(2-Fluoroethoxy)-3-(trifluoromethyl)phenyl)-1,2,4-oxadiazol-3-yl)benzenesulfonamide]

IC50 ([3]; S1PR1 IC50 (nM)): > 1000 nM
SMILES: O=C(O)c1ccc(-c2noc(-c3ccc(OCCF)c(C(F)(F)F)c3)n2)cc1 [10a, 4-(5-(4-(2-Fluoroethoxy)-3-(trifluoromethyl)phenyl)-1,2,4-oxadiazol-3-yl)benzoic acid]

fold increased S1PR1 IC50 value compared to compound 9b ([3]; vs benzamide 9b): 4 fold
SMILES: O=C(NO)c1ccc(-c2noc(-c3ccc(OCCF)c(C(F)(F)F)c3)n2)cc1 [10b, 4-(5-(4-(2-Fluoroethoxy)-3-(trifluoromethyl)phenyl)-1,2,4-oxadiazol-3-yl)-N-hydroxybenzamide]

IC50 [1]: > 1000 nM
fold decreased S1PR1 IC50 value compared to compound 9b ([3]; vs benzamide 9b): 5 fold
IC50 [2]: > 1000 nM
SMILES: NNC(=O)c1ccc(-c2noc(-c3ccc(OCCF)c(C(F)(F)F)c3)n2)cc1 [10c, 4-(5-(4-(2-Fluoroethoxy)-3-(trifluoromethyl)phenyl)-1,2,4-oxadiazol-3-yl)benzohydrazide]

IC50 ([3]; read-out: S1PR1 IC50): 341 ± 126 nM
fold increased S1PR1 IC50 value compared to compound 4 [3]: 130 fold
SMILES: O=C(O)c1cn(Cc2ccc(-c3noc(-c4ccc(OCCF)c(C(F)(F)F)c4)n3)cc2)nn1 [12a, 1-(4-(5-(4-(2-Fluoroethoxy)-3-(trifluoromethyl)phenyl)-1,2,4-oxadiazol-3-yl)benzyl)-1H-1,2,3-triazole-4-carbox-ylic acid]

IC50 ([4]; read-out: IC50 (nM) S1PR4, mean ± SD, membranes with recombinant human S1PR4, [32P]S1P): > 1000 nM
IC50 ([1]; read-out: IC50 (nM) S1PR2, mean ± SD, membranes with recombinant human S1PR2, [32P]S1P): > 1000 nM
IC50 ([5]; read-out: IC50 (nM) S1PR5, mean ± SD, membranes with recombinant human S1PR5, [32P]S1P): > 1000 nM
selectivity toward S1PR1 over S1PR2-5 ([3]; S1PR1 over S1PR2-5): > 100 fold
fold decreased S1PR1 IC50 value compared to acid 12a ([3]; vs 12a (341 nM)): 35 fold
IC50 ([2]; read-out: IC50 (nM) S1PR3, mean ± SD, membranes with recombinant human S1PR3, [32P]S1P): > 1000 nM
SMILES: OCc1cn(Cc2ccc(-c3noc(-c4ccc(OCCF)c(C(F)(F)F)c4)n3)cc2)nn1 [12b, (1-(4-(5-(4-(2-Fluoroethoxy)-3-(trifluoromethyl)phenyl)-1,2,4-oxadiazol-3-yl)benzyl)-1H-1,2,3-triazol-4-yl)met-hanol]

IC50 ([3]; S1PR1 IC50 (nM)): 99.8 ± 12.2 nM
fold increased S1PR1 IC50 value compared to compound 4 [3]: 38 fold
SMILES: O=C(O)CNCc1ccc(-c2noc(-c3ccc(OCCF)c(C(F)(F)F)c3)n2)cc1 [16a, (4-(5-(4-(2-Fluoroethoxy)-3-(trifluoromethyl)phenyl)-1,2,4-oxadiazol-3-yl)benzyl)glycine]

IC50 [4]: > 1000 nM
IC50 [1]: > 1000 nM
IC50 [5]: > 1000 nM
IC50 ([3]; S1PR1 IC50 (nM)): 6.3 ± 1.3 nM
IC50 [2]: > 1000 nM
SMILES: O=C(O)CCNCc1ccc(-c2noc(-c3ccc(OCCF)c(C(F)(F)F)c3)n2)cc1 [16b, 3-((4-(5-(4-(2-Fluoroethoxy)-3-(trifluoromethyl)phenyl)-1,2,4-oxadiazol-3-yl)benzyl)amino)propanoic acid]

IC50 ([3]; S1PR1 IC50 (nM)): 44.2 ± 6.8 nM
SMILES: NCCOCc1ccc(-c2noc(-c3ccc(OCCF)c(C(F)(F)F)c3)n2)cc1 [21b, 2-((4-(5-(4-(2-Fluoroethoxy)-3-(trifluoromethyl)phenyl)-1,2,4-oxadiazol-3-yl)benzyl)oxy)ethan-1-amine]
